What was measured:
CDK1/Cyclin B1 = CDK1/Cyclin B1 (Homo sapiens, UniProt P06493); experiment: CDK1/Cyclin B1 Biochemical Assay (TR-FRET), 0.015 mM ATP; conditions: 0.15 μM Rb (Ser780)-biotin substrate, pH7.0, 60 min preincubation, 120 min reaction, room temperature
Summary of the method: (§1)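 IC50 was from a four-parameter logistic fit of the 665/620 nm TR-FRET ratio (Eu anti-pRb Ser780 mAb, streptavidin-XL665). Compound (0-10 μM) was preincubated 60 min with enzyme, then reacted 120 min at room temperature with 0.15 μM biotinylated Rb (Ser780) peptide. ATP was 0.015 mM for CDK1/Cyclin B1 and 0.060 mM for CDK2/Cyclin E1; buffer was HEPES pH7.0.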

CDK2/Cyclin E1 = CDK2/Cyclin E1 (Homo sapiens, UniProt P24941); experiment: CDK2/Cyclin E1 Biochemical Assay (TR-FRET), 0.060 mM ATP; conditions: 0.15 μM Rb (Ser780)-biotin substrate, pH7.0, 60 min preincubation, 120 min reaction, room temperature
Summary of the method: as §1

CDK1/Cyclin B1, sequence (P06493 whole entry): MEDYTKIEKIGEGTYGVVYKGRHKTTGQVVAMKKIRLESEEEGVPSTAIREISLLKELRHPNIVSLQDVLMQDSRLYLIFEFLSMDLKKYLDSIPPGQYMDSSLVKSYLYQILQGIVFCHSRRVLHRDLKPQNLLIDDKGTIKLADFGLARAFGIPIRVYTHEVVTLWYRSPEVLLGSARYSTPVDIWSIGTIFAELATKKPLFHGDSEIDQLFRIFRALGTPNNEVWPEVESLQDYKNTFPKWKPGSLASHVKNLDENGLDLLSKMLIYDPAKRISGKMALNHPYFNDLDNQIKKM
CDK1/Cyclin B1, sequence (P14635 whole entry partner): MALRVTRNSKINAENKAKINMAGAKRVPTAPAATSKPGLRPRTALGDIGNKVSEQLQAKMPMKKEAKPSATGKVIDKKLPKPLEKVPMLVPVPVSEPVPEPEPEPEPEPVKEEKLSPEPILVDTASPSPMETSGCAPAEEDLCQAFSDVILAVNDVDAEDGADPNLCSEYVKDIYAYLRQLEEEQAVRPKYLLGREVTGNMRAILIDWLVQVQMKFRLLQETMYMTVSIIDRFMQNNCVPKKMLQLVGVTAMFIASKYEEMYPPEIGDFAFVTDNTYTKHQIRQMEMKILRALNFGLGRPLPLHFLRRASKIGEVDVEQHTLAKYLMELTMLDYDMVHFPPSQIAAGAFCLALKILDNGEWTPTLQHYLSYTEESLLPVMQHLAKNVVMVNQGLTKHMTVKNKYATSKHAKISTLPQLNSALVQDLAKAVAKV

IC50 (CDK1/Cyclin B1)	IC50 (CDK2/Cyclin E1)	SMILES
3.2 nM	0.6 nM	CC1NS(=O)(=O)c2ccc(Nc3cc([C@@H]4CC[C@H](OC(=O)NC5(C)CC5)C4)[nH]n3)cc21 (single isomer, unassigned) [Example 322b, cis-3-(3-((3-methyl-1,1-dioxido-2,3-dihydrobenzo[d]isothiazol-5-yl)amino)-1H-pyrazol-5-yl)cyclopentyl(1-methylcyclopropyl)carbamate]
29 nM	1.3 nM	CC1NS(=O)(=O)c2ccc(Nc3cc([C@@H]4CC[C@H](OC(=O)NC5(C)CC5)C4)[nH]n3)cc21 (single isomer, unassigned) [Example 322c, cis-3-(3-((3-methyl-1,1-dioxido-2,3-dihydrobenzo[d]isothiazol-5-yl)amino)-1H-pyrazol-5-yl)cyclopentyl(1-methylcyclopropyl)carbamate]
5.6 nM	0.7 nM	CC1NS(=O)(=O)c2ccc(Nc3cc([C@@H]4CC[C@H](OC(=O)NC5(C)CC5)C4)[nH]n3)cc21 (single isomer, unassigned) [Example 322d, cis-3-(3-((3-methyl-1,1-dioxido-2,3-dihydrobenzo[d]isothiazol-5-yl)amino)-1H-pyrazol-5-yl)cyclopentyl(1-methylcyclopropyl)carbamate]
30 nM	6.7 nM	CC[C@H](C)NC(=O)O[C@H]1CC[C@@H](c2cc(Nc3ccc4c(c3)CS(=O)(=O)N4)n[nH]2)C1 (single isomer, unassigned) [Example 323a]
17 nM	6.2 nM	CC[C@H](C)NC(=O)O[C@H]1CC[C@@H](c2cc(Nc3ccc4c(c3)CS(=O)(=O)N4)n[nH]2)C1 (single isomer, unassigned) [Example 323b]
23 nM	1.6 nM	CN1c2ccc(Nc3cc([C@@H]4CC[C@H](OC(=O)NC(C)(C)CO)C4)[nH]n3)cc2CS1(=O)=O (single isomer, unassigned) [Example 325a, cis-3-(3-((1-methyl-2,2-dioxido-1,3-dihydrobenzo[c]isothiazol-5-yl)amino)-1H-pyrazol-5-yl)cyclopentyl(1-hydroxy-2-methylpropan-2-yl)carbamate]
71 nM	2.3 nM	CN1c2ccc(Nc3cc([C@@H]4CC[C@H](OC(=O)NC(C)(C)CO)C4)[nH]n3)cc2CS1(=O)=O (single isomer, unassigned) [Example 325b, cis-3-(3-((1-methyl-2,2-dioxido-1,3-dihydrobenzo[c]isothiazol-5-yl)amino)-1H-pyrazol-5-yl)cyclopentyl(1-hydroxy-2-methylpropan-2-yl)carbamate]
143 nM	1.5 nM	CN1c2ccc(Nc3cc([C@@H]4CC[C@H](OC(=O)NC(C)(C)CO)C4)[nH]n3)c(F)c2CS1(=O)=O (single isomer, unassigned) [Example 327a, cis-3-(3-((4-fluoro-1-methyl-2,2-dioxido-1,3-dihydrobenzo[c]isothiazol-5-yl)amino)-1H-pyrazol-5-yl)cyclopentyl(1-hydroxy-2-methylpropan-2-yl)carbamate]
56 nM	1.7 nM	CN1c2ccc(Nc3cc([C@@H]4CC[C@H](OC(=O)NC(C)(C)CO)C4)[nH]n3)c(F)c2CS1(=O)=O (single isomer, unassigned) [Example 327b, cis-3-(3-((4-fluoro-1-methyl-2,2-dioxido-1,3-dihydrobenzo[c]isothiazol-5-yl)amino)-1H-pyrazol-5-yl)cyclopentyl(1-hydroxy-2-methylpropan-2-yl)carbamate]
315 nM	10 nM	C[C@@H](CO)NC(=O)O[C@H]1CC[C@@H](c2cc(Nc3ccc4c(c3F)CNS4(=O)=O)n[nH]2)C1 (single isomer, unassigned) [Example 328a]
1970 nM	31 nM	C[C@@H](CO)NC(=O)O[C@H]1CC[C@@H](c2cc(Nc3ccc4c(c3F)CNS4(=O)=O)n[nH]2)C1 (single isomer, unassigned) [Example 328b]
367 nM	1.9 nM	CN1c2ccc(Nc3cc([C@@H]4CC[C@H](OC(=O)NC5(C)COC5)C4)[nH]n3)c(F)c2CS1(=O)=O (single isomer, unassigned) [Example 332a, cis-3-(3-((4-fluoro-1-methyl-2,2-dioxido-1,3-dihydrobenzo[c]isothiazol-5-yl)amino)-1H-pyrazol-5-yl)cyclopentyl(3-methyloxetan-3-yl)carbamate]
160 nM	3.5 nM	CN1c2ccc(Nc3cc([C@@H]4CC[C@H](OC(=O)NC5(C)COC5)C4)[nH]n3)c(F)c2CS1(=O)=O (single isomer, unassigned) [Example 332b, cis-3-(3-((4-fluoro-1-methyl-2,2-dioxido-1,3-dihydrobenzo[c]isothiazol-5-yl)amino)-1H-pyrazol-5-yl)cyclopentyl(3-methyloxetan-3-yl)carbamate]
131 nM	1.8 nM	CN1c2ccc(Nc3cc([C@@H]4CC[C@H](OC(=O)NC5(C)CCOC5)C4)[nH]n3)c(F)c2CS1(=O)=O (single isomer, unassigned) [Example 349a, cis-3-(3-((4-fluoro-1-methyl-2,2-dioxido-1,3-dihydrobenzo[c]isothiazol-5-yl)amino)-1H-pyrazol-5-yl)cyclopentyl(3-methyltetrahydrofuran-3-yl)carbamate]
88 nM	1.2 nM	CN1c2ccc(Nc3cc([C@@H]4CC[C@H](OC(=O)NC5(C)CCOC5)C4)[nH]n3)c(F)c2CS1(=O)=O (single isomer, unassigned) [Example 349b, cis-3-(3-((4-fluoro-1-methyl-2,2-dioxido-1,3-dihydrobenzo[c]isothiazol-5-yl)amino)-1H-pyrazol-5-yl)cyclopentyl(3-methyltetrahydrofuran-3-yl)carbamate]
78 nM	1.9 nM	CN1c2ccc(Nc3cc([C@@H]4CC[C@H](OC(=O)NC5(C)CCOC5)C4)[nH]n3)c(F)c2CS1(=O)=O (single isomer, unassigned) [Example 349c, cis-3-(3-((4-fluoro-1-methyl-2,2-dioxido-1,3-dihydrobenzo[c]isothiazol-5-yl)amino)-1H-pyrazol-5-yl)cyclopentyl(3-methyltetrahydrofuran-3-yl)carbamate]
152 nM	1.4 nM	CN1c2ccc(Nc3cc([C@@H]4CC[C@H](OC(=O)NC5(C)CCOC5)C4)[nH]n3)c(F)c2CS1(=O)=O (single isomer, unassigned) [Example 349d, cis-3-(3-((4-fluoro-1-methyl-2,2-dioxido-1,3-dihydrobenzo[c]isothiazol-5-yl)amino)-1H-pyrazol-5-yl)cyclopentyl(3-methyltetrahydrofuran-3-yl)carbamate]
365 nM	14 nM	CN1Cc2c(ccc(Nc3cc([C@@H]4CC[C@H](OC(=O)NC5(C)COC5)C4)[nH]n3)c2F)S1(=O)=O (single isomer, unassigned) [Example 352a, cis-3-(3-((4-fluoro-2-methyl-1,1-dioxido-2,3-dihydrobenzo[d]isothiazol-5-yl)amino)-1H-pyrazol-5-yl)cyclopentyl(3-methyloxetan-3-yl)carbamate]
